Test results: PMC10916743 (RSC Advances, 2024)
Where “and” joins values, the source holds several entries; their conditions need not be identical. Identical values can stand only once.

Assays:
HCT116 cell line = experiment: MTT cytotoxicity assay, HCT116; assay type: cell-based; conditions: for IC50: Homo sapiens, HCT-116, read-out: IC50 HCT116; for Selectivity index: fold grander lethalness in HCT116 than in VERO cells: VERO IC50 / HCT116 IC50
HepG2 cell line = experiment: MTT cytotoxicity assay, HepG2; assay type: cell-based; conditions: for IC50: Homo sapiens, HepG2, read-out: IC50 HepG2; for Selectivity index: fold more toxic against HepG2 than VERO cells: VERO IC50 / HepG2 IC50
MCF-7 cell line = experiment: MTT cytotoxicity assay, MCF-7; assay type: cell-based; conditions: for IC50: Homo sapiens, MCF7, read-out: IC50 MCF-7; for Selectivity index: fold more toxic in MCF-7 than in VERO cells: VERO IC50 / MCF-7 IC50
EGFR^WT = EGFR^WT (Homo sapiens, UniProt P00533); experiment: In vitro EGFR^WT kinase inhibitory assay; assay type: biochemical; conditions: mean ± SD of three separate experiments
Sequence of EGFR^WT (P00533 25-1210): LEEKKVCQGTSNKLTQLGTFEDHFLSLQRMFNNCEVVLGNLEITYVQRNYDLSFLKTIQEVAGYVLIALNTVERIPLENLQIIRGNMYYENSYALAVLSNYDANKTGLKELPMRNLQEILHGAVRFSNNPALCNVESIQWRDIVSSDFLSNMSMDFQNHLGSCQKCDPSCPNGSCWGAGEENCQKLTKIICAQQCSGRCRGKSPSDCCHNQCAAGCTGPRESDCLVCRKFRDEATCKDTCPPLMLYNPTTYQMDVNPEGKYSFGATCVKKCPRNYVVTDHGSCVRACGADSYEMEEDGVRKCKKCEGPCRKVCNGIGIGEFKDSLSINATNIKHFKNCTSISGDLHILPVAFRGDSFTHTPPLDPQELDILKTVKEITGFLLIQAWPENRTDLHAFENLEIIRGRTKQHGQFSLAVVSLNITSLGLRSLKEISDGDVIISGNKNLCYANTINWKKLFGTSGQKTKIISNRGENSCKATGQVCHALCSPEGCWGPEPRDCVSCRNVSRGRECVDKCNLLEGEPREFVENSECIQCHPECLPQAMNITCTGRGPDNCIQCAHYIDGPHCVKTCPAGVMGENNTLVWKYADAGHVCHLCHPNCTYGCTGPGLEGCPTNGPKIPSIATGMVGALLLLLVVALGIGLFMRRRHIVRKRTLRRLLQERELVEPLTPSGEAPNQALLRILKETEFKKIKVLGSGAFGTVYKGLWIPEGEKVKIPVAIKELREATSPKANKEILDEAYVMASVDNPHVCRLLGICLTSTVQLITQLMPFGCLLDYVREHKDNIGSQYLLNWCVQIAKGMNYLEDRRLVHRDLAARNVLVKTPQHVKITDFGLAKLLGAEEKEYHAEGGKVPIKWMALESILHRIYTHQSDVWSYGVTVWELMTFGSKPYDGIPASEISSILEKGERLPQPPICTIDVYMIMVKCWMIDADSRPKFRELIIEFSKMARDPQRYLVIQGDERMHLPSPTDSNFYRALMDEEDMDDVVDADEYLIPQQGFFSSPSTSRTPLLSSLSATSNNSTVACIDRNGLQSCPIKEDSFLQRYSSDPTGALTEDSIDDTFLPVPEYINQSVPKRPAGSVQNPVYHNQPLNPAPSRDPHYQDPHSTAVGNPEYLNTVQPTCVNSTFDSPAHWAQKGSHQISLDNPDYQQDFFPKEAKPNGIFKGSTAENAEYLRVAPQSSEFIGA

A549 cell line = experiment: MTT cytotoxicity assay, A549; assay type: cell-based; conditions: for IC50: Homo sapiens, A549, read-out: IC50 A549; for Selectivity index: fold more toxicity in A549 than in VERO cells: VERO IC50 / A549 IC50
EGFR^T790M = EGFR^T790M (Homo sapiens, UniProt P00533, T790M); experiment: In vitro EGFR^T790M kinase inhibitory assay; assay type: biochemical; conditions: HTRF kinase assay, mean ± SD of three separate experiments
Sequence of EGFR^T790M (P00533 25-1210 T790M): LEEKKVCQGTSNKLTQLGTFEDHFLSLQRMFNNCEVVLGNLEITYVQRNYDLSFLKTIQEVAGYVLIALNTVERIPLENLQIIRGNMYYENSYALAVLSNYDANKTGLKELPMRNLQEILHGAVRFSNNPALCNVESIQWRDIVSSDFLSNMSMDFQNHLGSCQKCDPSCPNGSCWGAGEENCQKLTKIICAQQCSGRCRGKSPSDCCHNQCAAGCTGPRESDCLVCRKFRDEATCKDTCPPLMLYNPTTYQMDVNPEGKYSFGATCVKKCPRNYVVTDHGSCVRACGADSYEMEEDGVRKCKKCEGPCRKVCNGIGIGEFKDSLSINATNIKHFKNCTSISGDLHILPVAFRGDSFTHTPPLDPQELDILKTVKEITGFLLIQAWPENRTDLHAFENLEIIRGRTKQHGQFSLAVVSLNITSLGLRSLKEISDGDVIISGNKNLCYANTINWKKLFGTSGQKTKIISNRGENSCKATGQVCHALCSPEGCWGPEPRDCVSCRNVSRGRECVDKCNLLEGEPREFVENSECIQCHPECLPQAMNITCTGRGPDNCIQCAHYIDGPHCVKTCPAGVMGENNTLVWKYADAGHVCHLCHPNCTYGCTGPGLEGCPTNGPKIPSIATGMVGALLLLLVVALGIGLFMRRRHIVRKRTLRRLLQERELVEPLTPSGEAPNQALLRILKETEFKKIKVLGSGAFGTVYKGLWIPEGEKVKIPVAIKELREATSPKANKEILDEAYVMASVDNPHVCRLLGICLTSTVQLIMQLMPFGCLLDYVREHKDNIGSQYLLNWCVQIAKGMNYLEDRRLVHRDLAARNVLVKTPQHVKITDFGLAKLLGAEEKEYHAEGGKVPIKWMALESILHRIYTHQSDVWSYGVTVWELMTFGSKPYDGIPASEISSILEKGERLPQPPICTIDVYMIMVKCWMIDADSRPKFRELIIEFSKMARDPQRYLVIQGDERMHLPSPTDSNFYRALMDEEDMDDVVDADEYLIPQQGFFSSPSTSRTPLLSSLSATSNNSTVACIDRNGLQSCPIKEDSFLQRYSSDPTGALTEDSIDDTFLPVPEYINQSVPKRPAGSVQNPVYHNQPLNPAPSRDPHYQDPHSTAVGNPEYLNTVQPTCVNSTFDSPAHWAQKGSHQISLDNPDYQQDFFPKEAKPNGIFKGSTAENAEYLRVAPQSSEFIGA

Compound	IC50 (HCT116 cell line) [µM]	IC50 (HepG2 cell line) [µM]	IC50 (MCF-7 cell line) [µM]	IC50 (EGFR^WT) [µM]	IC50 (A549 cell line) [µM]	IC50 (EGFR^T790M)	Selectivity index: fold grander lethalness in HCT116 than in VERO cells (HCT116 cell line) [fold]	Selectivity index: fold more toxic against HepG2 than VERO cells (HepG2 cell line) [fold]	Selectivity index: fold more toxic in MCF-7 than in VERO cells (MCF-7 cell line) [fold]	Selectivity index: fold more toxicity in A549 than in VERO cells (A549 cell line) [fold]
C=CCn1c(=O)n(CC(=O)Nc2ccc(C(=O)NC)cc2)c(=O)c2cc(I)ccc21 [Compound 5a, 4-{2-[1-Allyl-6-iodo-2,4-dioxo-1,4-dihydroquinazolin-3(2H)-yl]acetamido}-N-methylbenzamide]	13.4 ± 1.5	15 ± 1.5	13.2 ± 1	1.32 ± 0.25	10.6 ± 1.5	1.62 ± 0.2 µM	–	–	–	–
C=CCn1c(=O)n(CC(=O)Nc2ccc(C(=O)NCC)cc2)c(=O)c2cc(I)ccc21 [Compound 5b, 4-{2-[1-Allyl-6-iodo-2,4-dioxo-1,4-dihydroquinazolin-3(2H)-yl]acetamido}-N-ethylbenzamide]	11 ± 1.3	12.5 ± 1	11.3 ± 1.1	1 ± 0.15	9.5 ± 1.5	1.33 ± 0.1 µM	–	–	–	–
C=CCn1c(=O)n(CC(=O)Nc2ccc(C(=O)OC)cc2)c(=O)c2cc(I)ccc21 [Compound 6a, Methyl 4-{2-[1-allyl-6-iodo-2,4-dioxo-1,4-dihydroquinazolin-3(2H)-yl]acetamido}benzoate]	12.1 ± 1.5	13 ± 1.4	12.2 ± 1.7	1.15 ± 0.25	10.4 ± 1.5	1.54 ± 0.5 µM	–	–	–	–
C=CCn1c(=O)n(CC(=O)Nc2ccc(C(=O)OCC)cc2)c(=O)c2cc(I)ccc21 [Compound 6b, Ethyl 4-{2-[1-allyl-6-iodo-2,4-dioxo-1,4-dihydroquinazolin-3(2H)-yl]acetamido}benzoate]	9.79 ± 1.8	11.6 ± 1.8	11 ± 1.6	0.95 ± 0.35	9.39 ± 1.5	1.12 ± 0.5 µM	–	–	–	–
C=CCn1c(=O)n(CC(=O)Nc2ccc(C(=O)NN)cc2)c(=O)c2cc(I)ccc21 [Compound 7, 2-[1-Allyl-6-iodo-2,4-dioxo-1,4-dihydroquinazolin-3(2H)-yl]-N-[4-(hydrazinecarbonyl)phenyl]acetamide]	15.2 ± 1.7	16.5 ± 1.6	15.2 ± 1.9	1.5 ± 0.15	12.2 ± 1.5	1.9 ± 0.5 µM	–	–	–	–
C=CCn1c(=O)n(CC(=O)Nc2ccc(-c3nnc(S)o3)cc2)c(=O)c2cc(I)ccc21 [Compound 8, 2-(1-Allyl-6-iodo-2,4-dioxo-1,4-dihydroquinazolin-3(2H)-yl)-N-(4-(5-mercapto-1,3,4-oxadiazol-2-yl)phenyl)acetamide]	9.31 ± 1.8	11.2 ± 1.9	10.8 ± 1.8	0.88 ± 0.35	9 ± 1.5	0.96 ± 0.5 µM	–	–	–	–
C=CCn1c(=O)n(CC(=O)Nc2ccc(-c3nnc(C)o3)cc2)c(=O)c2cc(I)ccc21 [Compound 9, 2-[1-Allyl-6-iodo-2,4-dioxo-1,4-dihydroquinazolin-3(2H)-yl]-N-[4-(5-methyl-1,3,4-oxadiazol-2-yl)phenyl]acetamide]	8.62 ± 1.5	11 ± 1.4	10.4 ± 1.7	0.8 ± 0.25	7.06 ± 1.5	0.89 ± 0.5 µM	–	–	–	–
C=CCn1c(=O)n(CC(=O)Nc2ccc(-n3nc(C)cc3C)cc2)c(=O)c2cc(I)ccc21 [Compound 10, 2-[1-Allyl-6-iodo-2,4-dioxo-1,4-dihydroquinazolin-3(2H)-yl]-N-[4-(3,5-dimethyl-1H-pyrazol-1-yl)phenyl]acetamide]	6.96 ± 1.1	7.35 ± 1	7.85 ± 0.9	0.38 ± 0.35	6.9 ± 1.5	0.54 ± 0.5 µM	6.24	5.91	5.53	6.30
CNC(=O)c1ccc(NC(=O)Cn2c(=O)c3cc(I)ccc3n(Cc3ccccc3)c2=O)cc1 [Compound 13, 4-{2-[1-Benzyl-6-iodo-2,4-dioxo-1,4-dihydroquinazolin-3(2H)-yl]acetamido}-N-methylbenzamide]	7.36 ± 1.1	8 ± 1.3	8.25 ± 1.1	0.5 ± 0.15	7.1 ± 1.1	0.61 ± 0.1 µM	6.37	5.86	5.68	6.60
COC(=O)c1ccc(NC(=O)Cn2c(=O)c3cc(I)ccc3n(Cc3ccccc3)c2=O)cc1 [Compound 14a, Methyl 4-{2-[1-benzyl-6-iodo-2,4-dioxo-1,4-dihydroquinazolin-3(2H)-yl]acetamido}benzoate]	8.5 ± 1.1	9 ± 1.2	8.35 ± 1.5	0.6 ± 0.35	7.87 ± 1.1	0.75 ± 0.5 µM	5.91	5.58	6.01	6.38
CCOC(=O)c1ccc(NC(=O)Cn2c(=O)c3cc(I)ccc3n(Cc3ccccc3)c2=O)cc1 [Compound 14b, Ethyl 4-{2-[1-benzyl-6-iodo-2,4-dioxo-1,4-dihydroquinazolin-3(2H)-yl]acetamido}benzoate]	6.15 ± 1.5	5.86 ± 1	7.03 ± 1.1	0.25 ± 0.35	5.77 ± 1.3	0.36 ± 0.1 µM	7.99	8.39	6.99	8.52
NNC(=O)c1ccc(NC(=O)Cn2c(=O)c3cc(I)ccc3n(Cc3ccccc3)c2=O)cc1 [Compound 15, 2-[1-Benzyl-6-iodo-2,4-dioxo-1,4-dihydroquinazolin-3(2H)-yl]-N-[4-(hydrazinecarbonyl)phenyl]acetamide]	8.95 ± 1	9.5 ± 1	8.8 ± 1	0.65 ± 0.15	8.18 ± 1	0.8 ± 0.1 µM	5.82	5.49	5.92	6.37
O=C(Cn1c(=O)c2cc(I)ccc2n(Cc2ccccc2)c1=O)Nc1ccc(-c2nnc(S)o2)cc1 [Compound 16, 2-[1-Benzyl-6-iodo-2,4-dioxo-1,4-dihydroquinazolin-3(2H)-yl]-N-[4-(5-mercapto-1,3,4-oxadiazol-2-yl)phenyl]acetamide]	6.67 ± 1	6.54 ± 1	7.36 ± 1	0.33 ± 0.25	6.2 ± 1	0.4 µM and 0.43 µM	6.56	6.69	5.95	7.06
Cc1nnc(-c2ccc(NC(=O)Cn3c(=O)c4cc(I)ccc4n(Cc4ccccc4)c3=O)cc2)o1 [Compound 17, 2-[1-Benzyl-6-iodo-2,4-dioxo-1,4-dihydroquinazolin-3(2H)-yl]-N-[4-(5-methyl-1,3,4-oxadiazol-2-yl)phenyl]acetamide]	5.4 ± 1.5	5.55 ± 0.7	6.85 ± 0.9	0.15 ± 0.35	5.11 ± 1.1	0.3 ± 0.5 µM	–	8.31	6.73	–
Cc1cc(C)n(-c2ccc(NC(=O)Cn3c(=O)c4cc(I)ccc4n(Cc4ccccc4)c3=O)cc2)n1 [Compound 18, 2-[1-Benzyl-6-iodo-2,4-dioxo-1,4-dihydroquinazolin-3(2H)-yl]-N-[4-(3,5-dimethyl-1H-pyrazol-1-yl)phenyl]acetamide]	5.68 ± 1.5	5.25 ± 0.7	6.46 ± 0.9	0.17 ± 0.35	5.24 ± 1.1	0.25 ± 0.5 µM	–	8.67	7.04	–
